Assay results reported in ChEMBL document CHEMBL5291721, “A preclinical secondary pharmacology resource illuminates target-adverse drug reaction associations of marketed drugs” (Nat Commun, 2023).

Tests used:
[1] = biological target: T1, Muscarinic acetylcholine receptor M4 (Homo sapiens, UniProt P08173)
T1 sequence (P08173 whole entry): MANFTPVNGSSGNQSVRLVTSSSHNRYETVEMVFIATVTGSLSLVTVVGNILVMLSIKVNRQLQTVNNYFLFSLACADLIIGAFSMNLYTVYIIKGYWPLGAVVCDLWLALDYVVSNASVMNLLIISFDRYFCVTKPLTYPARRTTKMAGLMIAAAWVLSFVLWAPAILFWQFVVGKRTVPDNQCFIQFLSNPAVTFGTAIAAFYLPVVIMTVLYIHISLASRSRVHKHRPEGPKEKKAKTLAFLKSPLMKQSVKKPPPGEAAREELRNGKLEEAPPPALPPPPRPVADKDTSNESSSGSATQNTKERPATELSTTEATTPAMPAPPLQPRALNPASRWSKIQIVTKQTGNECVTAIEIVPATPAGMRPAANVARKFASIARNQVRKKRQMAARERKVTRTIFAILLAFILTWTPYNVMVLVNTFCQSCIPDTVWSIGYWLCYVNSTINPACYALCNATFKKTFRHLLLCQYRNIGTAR

[2] = biological target: T2, Muscarinic acetylcholine receptor M5 (Homo sapiens, UniProt P08912)
T2 sequence (P08912 whole entry): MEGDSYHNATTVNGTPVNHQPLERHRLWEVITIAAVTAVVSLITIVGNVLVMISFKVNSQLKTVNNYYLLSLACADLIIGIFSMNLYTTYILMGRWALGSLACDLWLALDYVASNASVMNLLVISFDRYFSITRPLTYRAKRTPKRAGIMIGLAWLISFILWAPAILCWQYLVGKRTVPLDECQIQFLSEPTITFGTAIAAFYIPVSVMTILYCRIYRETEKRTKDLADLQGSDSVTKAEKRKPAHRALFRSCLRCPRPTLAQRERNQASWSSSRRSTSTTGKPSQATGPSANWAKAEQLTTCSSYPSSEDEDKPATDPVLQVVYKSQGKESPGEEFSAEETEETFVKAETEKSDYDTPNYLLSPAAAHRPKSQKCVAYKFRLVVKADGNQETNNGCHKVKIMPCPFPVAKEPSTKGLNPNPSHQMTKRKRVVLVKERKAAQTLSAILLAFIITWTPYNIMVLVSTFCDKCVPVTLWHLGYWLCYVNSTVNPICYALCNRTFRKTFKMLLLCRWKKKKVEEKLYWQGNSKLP

[3] = biological target: T3, Peroxisome proliferator-activated receptor gamma (Homo sapiens, UniProt P37231); format: functional
T3 sequence (P37231 whole entry): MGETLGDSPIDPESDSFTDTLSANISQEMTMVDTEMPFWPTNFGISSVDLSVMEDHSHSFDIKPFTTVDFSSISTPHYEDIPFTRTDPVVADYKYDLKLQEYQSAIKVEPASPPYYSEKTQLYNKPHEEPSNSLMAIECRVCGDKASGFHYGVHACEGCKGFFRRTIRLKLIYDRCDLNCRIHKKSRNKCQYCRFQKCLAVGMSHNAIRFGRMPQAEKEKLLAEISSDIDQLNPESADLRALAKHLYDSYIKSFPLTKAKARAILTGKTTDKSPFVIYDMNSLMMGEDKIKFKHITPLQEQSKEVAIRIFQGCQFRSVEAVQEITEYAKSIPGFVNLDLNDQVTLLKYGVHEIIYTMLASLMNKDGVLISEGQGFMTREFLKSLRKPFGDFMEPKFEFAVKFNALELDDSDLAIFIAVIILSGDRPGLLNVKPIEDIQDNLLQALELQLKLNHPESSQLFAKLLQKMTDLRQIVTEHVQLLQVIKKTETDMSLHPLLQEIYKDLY

Substance-K receptor = biological target: T4, Substance-K receptor (Homo sapiens, UniProt P21452)
T4 sequence (P21452 whole entry): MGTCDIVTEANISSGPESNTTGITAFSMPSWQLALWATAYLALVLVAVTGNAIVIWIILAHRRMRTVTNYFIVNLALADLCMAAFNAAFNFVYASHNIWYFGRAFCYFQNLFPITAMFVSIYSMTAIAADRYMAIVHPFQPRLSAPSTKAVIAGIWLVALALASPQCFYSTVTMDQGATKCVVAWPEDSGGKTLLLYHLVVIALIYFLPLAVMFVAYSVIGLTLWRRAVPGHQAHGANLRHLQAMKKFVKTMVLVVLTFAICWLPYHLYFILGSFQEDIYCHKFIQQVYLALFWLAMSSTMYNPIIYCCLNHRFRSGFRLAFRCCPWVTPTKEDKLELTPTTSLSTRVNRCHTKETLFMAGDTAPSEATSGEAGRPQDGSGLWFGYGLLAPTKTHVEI

[4] = biological target: 5-hydroxytryptamine receptor 6 (Homo sapiens, UniProt P50406)
[5] = biological target: 5-hydroxytryptamine receptor 7 (Homo sapiens, UniProt P34969)
D(1B) dopamine receptor = D(1B) dopamine receptor (Homo sapiens, UniProt P21918)
[6] = biological target: Hydroxycarboxylic acid receptor 2 (Homo sapiens, UniProt Q8TDS4)
[7] = biological target: T5, Type-2 angiotensin II receptor (Homo sapiens, UniProt P50052); format: functional
T5 sequence (P50052 whole entry): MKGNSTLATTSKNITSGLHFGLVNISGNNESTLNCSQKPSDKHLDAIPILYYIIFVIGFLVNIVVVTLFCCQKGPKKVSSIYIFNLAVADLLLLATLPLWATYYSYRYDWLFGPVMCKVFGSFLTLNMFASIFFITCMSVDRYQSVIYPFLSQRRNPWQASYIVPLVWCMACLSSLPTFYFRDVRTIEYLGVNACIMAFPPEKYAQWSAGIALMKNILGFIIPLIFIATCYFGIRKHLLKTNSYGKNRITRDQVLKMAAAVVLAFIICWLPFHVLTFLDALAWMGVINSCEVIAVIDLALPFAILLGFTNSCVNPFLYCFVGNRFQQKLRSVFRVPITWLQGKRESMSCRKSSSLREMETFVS

[8] = biological target: Synaptic vesicular amine transporter (Rattus norvegicus, UniProt Q01827); format: functional
Further: assay procedure not described here.

Chain of 5-hydroxytryptamine receptor 7 (P34969 whole entry): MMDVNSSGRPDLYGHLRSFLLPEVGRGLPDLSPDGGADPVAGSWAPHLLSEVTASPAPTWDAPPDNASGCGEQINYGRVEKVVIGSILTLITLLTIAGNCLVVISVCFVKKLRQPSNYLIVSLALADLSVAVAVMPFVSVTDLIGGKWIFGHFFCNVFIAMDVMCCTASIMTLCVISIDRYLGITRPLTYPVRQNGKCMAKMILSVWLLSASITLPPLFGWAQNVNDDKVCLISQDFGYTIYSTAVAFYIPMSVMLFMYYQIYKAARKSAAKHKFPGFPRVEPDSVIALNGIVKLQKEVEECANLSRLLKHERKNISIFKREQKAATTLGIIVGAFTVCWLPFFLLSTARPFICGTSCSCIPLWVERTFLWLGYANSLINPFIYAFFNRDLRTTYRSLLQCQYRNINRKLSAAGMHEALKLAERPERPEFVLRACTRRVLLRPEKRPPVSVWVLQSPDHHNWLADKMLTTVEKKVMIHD
Chain of 5-hydroxytryptamine receptor 6 (P50406 whole entry): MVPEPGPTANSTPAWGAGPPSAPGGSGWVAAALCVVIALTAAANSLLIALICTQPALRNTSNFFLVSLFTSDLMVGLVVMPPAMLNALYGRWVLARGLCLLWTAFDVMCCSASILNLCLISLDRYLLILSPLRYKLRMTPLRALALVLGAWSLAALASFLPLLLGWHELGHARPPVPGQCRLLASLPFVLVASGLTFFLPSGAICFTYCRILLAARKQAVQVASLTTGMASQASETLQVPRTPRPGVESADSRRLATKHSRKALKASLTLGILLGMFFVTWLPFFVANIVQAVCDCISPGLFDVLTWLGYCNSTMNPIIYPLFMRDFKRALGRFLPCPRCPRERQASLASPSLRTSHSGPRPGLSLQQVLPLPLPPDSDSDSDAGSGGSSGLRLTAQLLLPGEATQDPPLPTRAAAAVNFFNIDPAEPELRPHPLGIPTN
Chain of D(1B) dopamine receptor (P21918 whole entry): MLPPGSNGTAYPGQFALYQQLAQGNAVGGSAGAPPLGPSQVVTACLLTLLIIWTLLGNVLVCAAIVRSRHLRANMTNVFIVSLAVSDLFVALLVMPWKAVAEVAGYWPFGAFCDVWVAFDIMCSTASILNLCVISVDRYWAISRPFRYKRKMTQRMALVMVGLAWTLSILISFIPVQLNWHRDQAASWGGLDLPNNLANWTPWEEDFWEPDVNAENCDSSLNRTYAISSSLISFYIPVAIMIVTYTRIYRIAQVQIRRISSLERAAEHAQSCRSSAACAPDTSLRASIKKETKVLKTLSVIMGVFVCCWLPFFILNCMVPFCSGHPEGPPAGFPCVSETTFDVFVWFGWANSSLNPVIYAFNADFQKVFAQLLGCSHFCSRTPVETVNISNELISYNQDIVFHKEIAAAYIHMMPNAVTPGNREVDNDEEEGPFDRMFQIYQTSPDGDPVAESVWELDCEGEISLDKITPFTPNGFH
Chain of Synaptic vesicular amine transporter (Q01827 whole entry): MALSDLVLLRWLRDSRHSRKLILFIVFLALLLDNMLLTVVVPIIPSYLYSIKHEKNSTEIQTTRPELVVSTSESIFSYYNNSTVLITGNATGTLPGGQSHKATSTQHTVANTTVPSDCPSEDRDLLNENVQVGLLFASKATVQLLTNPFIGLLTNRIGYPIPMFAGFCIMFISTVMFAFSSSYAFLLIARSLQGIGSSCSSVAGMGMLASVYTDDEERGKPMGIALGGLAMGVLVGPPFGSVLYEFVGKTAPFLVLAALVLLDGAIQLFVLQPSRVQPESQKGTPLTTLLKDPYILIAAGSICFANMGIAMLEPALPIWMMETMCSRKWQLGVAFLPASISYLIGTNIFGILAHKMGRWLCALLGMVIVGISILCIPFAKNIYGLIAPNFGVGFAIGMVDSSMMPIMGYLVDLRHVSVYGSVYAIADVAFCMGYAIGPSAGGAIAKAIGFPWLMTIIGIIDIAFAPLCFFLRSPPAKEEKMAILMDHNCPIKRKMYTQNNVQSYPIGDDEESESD
Chain of Hydroxycarboxylic acid receptor 2 (Q8TDS4 whole entry): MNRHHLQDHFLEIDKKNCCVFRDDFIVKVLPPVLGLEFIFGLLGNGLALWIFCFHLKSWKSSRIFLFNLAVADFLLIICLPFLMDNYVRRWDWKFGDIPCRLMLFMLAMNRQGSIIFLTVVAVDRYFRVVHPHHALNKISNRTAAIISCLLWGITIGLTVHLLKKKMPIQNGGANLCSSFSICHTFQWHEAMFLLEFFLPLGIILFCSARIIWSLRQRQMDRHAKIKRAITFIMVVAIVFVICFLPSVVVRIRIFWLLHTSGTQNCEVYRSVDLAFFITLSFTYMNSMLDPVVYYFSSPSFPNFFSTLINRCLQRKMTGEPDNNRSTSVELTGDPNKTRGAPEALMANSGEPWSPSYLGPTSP

SMILES | AC50 [1] [µM] | AC50 [3] [µM] | AC50 [4] [µM] | AC50 [5] [µM] | also measured
C[N+]12CCC(CC1)C(OC(=O)C(O)(c1ccccc1)c1ccccc1)C2 (configuration not stated) | 0.0047 | – | – | – | AC50 [2]: 0.0068 µM
CO/N=C(\C(=O)N[C@@H]1C(=O)N2C(C(=O)O)=CCS[C@H]12)c1csc(N)n1 [CEFTIZOXIME] | – | > 30 | – | – | –
CO/N=C(\C(=O)N[C@@H]1C(=O)N2C(C(=O)O)=C(CSc3nc(=O)c(=O)[nH]n3C)CS[C@H]12)c1csc(N)n1 [CEFTRIAXONE] | – | > 30 | – | – | –
CCOC(=O)C(C)(C)Oc1ccc(Cl)cc1 [CLOFIBRATE] | – | > 30 | – | – | –
CCCCOc1ccc(C(=O)CCN2CCCCC2)cc1 [DYCLONINE] | 13.4 | – | > 10 | > 10 | AC50 (Substance-K receptor): > 10 µM; AC50 (D(1B) dopamine receptor): > 10 µM; AC50 [2]: 15.8 µM
CC(C)NC[C@H](O)COc1ccc(CC(N)=O)cc1 [ESATENOLOL] | – | – | > 10 | > 10 | –
NNC(=O)c1ccncc1 [ISONIAZID] | – | – | > 10 | > 10 | –
O=C1Nc2ccc(Cl)cc2C(c2ccccc2Cl)=NC1O (configuration not stated) [LORAZEPAM] | – | – | – | – | AC50 [6]: > 10 µM; AC50 [7]: > 100 µM
Cc1ccnc2c1NC(=O)c1cccnc1N2C1CC1 [NEVIRAPINE] | > 10 | – | > 10 | > 10 | AC50 (Substance-K receptor): > 10 µM; AC50 (D(1B) dopamine receptor): > 10 µM; AC50 [2]: > 10 µM
Fc1ccc([C@@H]2CCNC[C@H]2COc2ccc3c(c2)OCO3)cc1 [PAROXETINE] | 3.47 | – | – | > 10 | AC50 [8]: 2.5 µM; AC50 (Substance-K receptor): > 10 µM; AC50 (D(1B) dopamine receptor): > 10 µM; AC50 [7]: > 100 µM
CCC(=O)O[C@](Cc1ccccc1)(c1ccccc1)[C@H](C)CN(C)C [PROPOXYPHENE] | – | – | – | – | AC50 [6]: > 10 µM
CCOC(=O)[C@@H](N)Cc1ccc(-c2cc(O[C@H](c3ccc(Cl)cc3-n3ccc(C)n3)C(F)(F)F)nc(N)n2)cc1 [TELOTRISTAT ETHYL] | – | > 30 | – | – | –
CC(c1cc2ccccc2s1)N(O)C(N)=O (configuration not stated) [ZILEUTON] | – | – | – | – | AC50 [8]: > 30 µM
